In patent US10391070B2, “Compositions and methods for treating neurological diseases or injury” (MUSC FOUNDATION FOR RESEARCH DEVELOPMENT, priority 2012, dated 2019):
Read-outs that look alike come from different tables or passages of the source.

How the values were obtained:
HT22 cells = experiment: In vitro neuroprotective activity against glutamate-induced cell death (MTS cell viability); type: cell-based, mouse; settings: HT22 cells; for EC50: 24 hrs, MTS, concentration producing 50% protection, read-out: Protection PC50
Protocol: The HT22 neuronal cell line is a subclone of HT4, derived from the mouse hippocampus (Morimoto and Koshland, 1990). […] HT22 cells were used. The cells were grown in Dulbecco's Modified Eagle's medium (DMEM/high glucose) supplemented with 10% fetal bovine serum (Hyclone) and 5 mL Antibiotic-Antimycotic (Amphotericin B, Penicillin, and Streptomycin; Invitrogen) at 37° C. in 5% CO2.
Cell viability was assessed by the ability of the viable cells to metabolize 3-(4,5-dimethylthiazol-2-yl)-5-(3-carboxymethoxyphenyl)-2(4-sulfophenyl)2-H-tetrazolium, inner salt (MTS), as described previously (Cory et al., 1991). The metabolism of tetrazolium salts is often used to measure cellular proliferation, but in the system used here, it has been previously shown to correlate well with cell viability as determined by trypan blue exclusion and colony-forming assays (Davis and Maher, 1994). Briefly, HT-22 cells were seeded onto 96-well plates at 5.0×10^3 cells per well in 75 μL of medium and maintained at 37° C. in 5% CO2 overnight prior to the initiation of experimental treatments. For glutamate toxicity testing, cells were subsequently treated with 25 μL of medium containing glutamate (monosodium glutamate, Sigma, 1 M stock concentration in media, to achieve a final concentration of 10 mM) plus inhibitors (stock in DMSO) and maintained at 37° C. in 5% CO2. For t-BuOOH toxicity testing, cells were subsequently treated with 25 μL of medium containing t-BuOOH (Sigma, 10 mM stock concentration, to achieve a final concentration of 50 μM) plus inhibitors (stock in DMSO) and maintained at 37° C. in 5% CO2 for 3 hours, after which the media was removed, cells washed gently with HBSS, the media replaced with standard culture media, and the cells returned to incubation at 37° C. in 5% CO2. For both glutamate and t-BuOOH treatments, 10 μl of MTS solution was added to each well 24 hrs after initial treatment, and the cells were maintained in growth medium for 2 h at 37° C. Absorbance at 490 nm was subsequently measured by a SpectraMax 190 plate reader (Molecular Devices). The growth medium without cells in the presence of MTS solution was used as solution background and untreated cells were considered the controls. Cell viability was calculated as a percentage compared with untreated controls. EC50 determinations were based on 12-point titrations using GraphPad Prism, and each experiment was repeated at least four times. Morphology of HT22 cells following treatments was determined by phase-contrast microscopy. Digital images of cells grown on cell culture plates were captured at 10× magnification.
The neuroprotective properties of VK and its derivatives were estimated through their protective effects against cell death in mouse neuronal HT22 cells induced by exposure to high levels of glutamate, which recapitulates a hallmark of the extracellular environment found in several neurodegenerative diseases and CNS injuries and is a well established model of neuronal oxidative stress. This investigation began by comparing the relative abilities of the two predominant naturally occurring forms of VK, VK1 and VK2, to prevent oxidative cell death. […] Several 1,4-naphthoquinones with various substitutions at the 2′ and 3′ positions were tested to determine the minimum structural requirement of the system and what the optimum scaffold for future developmental efforts and biological validation would be (FIG. 1B and Table 1). […] Substitution by a single methyl group at the 2′ position (VK3) improves the compound's ability to protect against cell death. Various other simple substituents at the 2′ and 3′ positions give the naphthoquinone structure the ability to prevent oxidative cell death at nanomolar concentrations (Table 1 and FIG. 16).

[1] = test system: minimal clonic seizures (6 Hz); experiment: Minimal clonic seizure (6 Hz) test; type: in vivo, mouse; settings: mice; for animals protected/animals tested, 0.25 h / animals protected/animals tested, 0.5 h / animals protected/animals tested, 1.0 h / animals protected/animals tested, 2.0 h / animals protected/animals tested, 4.0 h: 6 Hz
Protocol: Mouse studies were performed by NIH Anticonvulsant Screening Program at the National Institute of Neurological Disorders and Stroke (Stables and Kupferberg, 1997) according to the established NIH experimental procedures outlined below. Compounds were delivered into mice by i.p. injection at a dose of 100 mg/kg in sterile 5% DMSO, 95% Neobee (Josey et al., 2013). One of four methods for seizure induction was subsequently administered to mice at 0.25, 0.5, 1, 2 and 4 h after treatment with compound. (1) Subcutaneous PTZ seizure threshold test. PTZ was administered at a concentration of 85 mg/kg, into the loose fold of skin in the midline of the neck. […] (2) Maximal electroshock test. 60 Hz of 50 mA alternating current was delivered for 0.2 s by corneal electrodes. Mice were considered protected from seizures when the hindlimb tonic extensor was absent (White et al., 1995). (3) Minimal clonic seizure (6 Hz) test. 6 Hz of 32 mA or 44 mA alternating current was delivered for 3 s by corneal electrodes to elicit a psychomotor seizure. Mice were considered protected from seizures when the automatistic behaviors were absent (Barton et al., 2001). (4) Corneal kindled mouse model. Mice were kindled electrically with a 3 s stimulation, 8 mA, 60 Hz, and corneal electrodes to a criterion of 10 consecutive Stage 5 seizures (facial clonus and head nodding progressing to forelimb clonus, and finally rearing and falling accompanied by a generalized clonic seizure as described by Racine, 1972). Animals generally reach Stage 5 after twice daily stimulation for 8 days. With continued stimulation once a day, animals usually progressed to a reproducible Stage 5 after 10-14 additional days. At least 72 hours after the mice were kindled, the test substance was administered i.p. and each animal was given the electrical stimulus indicated above. […] Treated animals not displaying a Stage 4 or 5 seizure were considered protected.
6 Hz of 32 mA or 44 mA alternating current was delivered for 3 s by corneal electrodes to elicit a psychomotor seizure. Mice were considered protected from seizures when the automatistic behaviors were absent (Barton et al., 2001). Pre-administration of test compounds (100 mg/kg) to mice via i.p. injection protects against minimal clonic seizures (6 Hz). The data for each treatment is represented as the number of animals protected/number of animals tested.
The minimal clonic seizure (6 Hz) test is generally used to assess a agent's efficacy against electrically-induced seizures but uses a lower frequency (6 Hz) and longer duration of stimulation (3s) shock. Test compounds are pre-administered to mice via i.p. injection. Individual mice are challenged with sufficient current delivered through corneal electrodes to elicit a psychomotor seizure in 97% of animals (32 mA for 3s). Untreated mice will display seizures characterized by a minimal clonic phase followed by stereotyped, automatistic behaviors described originally as being similar to the aura of human patients with partial seizures. Animals not displaying this behavior are considered protected. Animals may also be evaluated using stimulation of 22 or 44 mA.

[2] = Mus musculus, HT-22, 10 mM glutamate

Row | Compound | EC50 (HT22 cells; [2]) [nM] | animals protected/animals tested, 0.25 h ([1]; 100 mg/kg i.p., 32 mA) | animals protected/animals tested, 0.5 h ([1]; 100 mg/kg i.p., 32 mA) | animals protected/animals tested, 1.0 h ([1]; 100 mg/kg i.p., 32 mA) | animals protected/animals tested, 2.0 h ([1]; 100 mg/kg i.p., 32 mA) | animals protected/animals tested, 4.0 h ([1]; 100 mg/kg i.p., 32 mA) | protection against 6 Hz seizures ([1]; 100 mg/kg i.p., 32 mA, 0.25 h) [%] | anticonvulsant activity in minimal clonic (6 Hz) test ([1]; 32 mA) | protection in 6 Hz model at 44 mA ([1]; 44 mA) | fold increase in PC50 potency over VK2 (HT22 cells; 10 mM glutamate) | fold increase in PC50 potency over compound 2j (HT22 cells; 10 mM glutamate) [fold] | EC50 (HT22 cells; 10 mM glutamate) [nM] | protection from oxidative cell death (HT22 cells; glutamate)
1 | C#CCNC1=CC(=O)c2ccccc2C1=O [Compound 2h, 2-(prop-2-yn-1-ylamino)naphthalene-1,4-dione] | 120 | 4/4 | 2/4 | 1/4 | 1/4 | 0/4 | 100 | good anticonvulsant activity | did not result in any protection | – | – | – | –
2 | O=C1C=C(NCc2ccccc2)C(=O)c2ccccc21 [Compound 2j, 2-(benzylamino)naphthalene-1,4-dione] | 88 | 0/4 | 0/4 | 1/4 | 1/4 | 1/4 | – | good anticonvulsant activity | – | – | – | – | –
3 | O=C1C=C(NCc2cccc(Cl)c2)C(=O)c2ccccc21 [Compound 2q, 2-((3-chlorobenzyl)amino)naphthalene-1,4-dione] | 31 | 1/4 | 0/4 | 1/4 | 0/4 | 0/4 | – | good anticonvulsant activity | – | more than 10 fold | ~3 | – | –
4 | CC1=CC(=O)c2ccccc2C1=O [VK3, menadione, reference compound] | – | – | – | – | – | – | – | – | – | – | – | 797 | –
5 | menaquinones [VK2, reference compound] | – | – | – | – | – | – | – | – | – | – | – | 432 | rescued HT22 cells from oxidative cell death
